From patent publication US6787651B2, “Substituted indoles, pharmaceutical compounds containing such indoles and their use as PPAR-γ binding agents” (SmithKline Beecham Corporation, priority 2000, dated 2004)

Experiments:
[1] = molecular target: T1, PPARγ ligand binding domain (LBD) (amino acids 195-475) (Homo sapiens, UniProt P37231); test: PPAR-γ binding assay (spin plate / gel filtration binding assay, displacement of [3H]BRL 49653); conditions: read-out: IC50 range in the PPAR-γ Binding Assay
T1 construct: polyHis; made in house; host or cells: Escherichia coli
T1 sequence (P37231 195-475 isoform P37231-2): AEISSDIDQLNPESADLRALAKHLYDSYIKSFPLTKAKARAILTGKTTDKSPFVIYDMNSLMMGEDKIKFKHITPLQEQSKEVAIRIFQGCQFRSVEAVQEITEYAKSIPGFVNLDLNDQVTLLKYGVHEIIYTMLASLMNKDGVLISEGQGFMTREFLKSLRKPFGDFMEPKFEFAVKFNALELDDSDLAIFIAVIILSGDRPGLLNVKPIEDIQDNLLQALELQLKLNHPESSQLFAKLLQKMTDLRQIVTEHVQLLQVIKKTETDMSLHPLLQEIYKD
Experimental: The activity of a given compound in binding to PPAR-γ can be assayed routinely according to procedures known in the art. […] The PPAR-γ binding assay described below was used to determine the PPAR-γ binding activities of the compounds of the invention.
Compounds were tested for their ability to bind to PPARγ using a spin plate assay (gel filtration binding assay). […] Each compound was tested in triplicate. […] The plates were centrifuged (Beckman GS-6R) at 2500 rpm for 5 minutes, 170 μl Scitisafe® scintillation fluid (Fisher) was added to each well, the plates were sealed, and after 1 hour, were counted in a Wallac MicroBeta counter. The amount of nonspecific binding, as assessed by control wells containing 10 μM of the corresponding unlabeled ligand, was subtracted from each data point. For each compound tested, the data was averaged and plots of ligand concentration versus CPM of radioligand bound were constructed. Apparent IC50 values were estimated from nonlinear least-squares fit of the data assuming simple competitive binding.

Row | Compound | IC50 [1] [nM] | melting point
1 | COc1ccc(Cc2c(C(=O)O)n(CC3CC3)c3ccccc23)cc1 [Example 230, 1-(Cyclopropylmethyl)-3-[(4-methoxyphenyl)methyl]indole-2-carboxylic acid] | 10 to 10000 | 162 to 163 °C
2 | COc1cccc(Cn2c(C(=O)O)c(-c3ccc(C(C)(C)C)cc3)c3c(OCC4CC4)cccc32)c1 [Example 296] | 10 to 10000 | 162 °C
3 | COc1cccc(Cn2c(C(=O)O)c(-c3cccc(C(=O)NC4CCCC4)c3)c3ccccc32)c1 [Example 329] | 10 to 10000 | 108 °C
4 | CCOc1ccc(-c2c(C(=O)O)n(Cc3ccc(F)cc3)c3c(NC(=O)C4CC4)cccc23)cc1 [Example 285] | – | 250 °C
5 | COc1ccc(-c2c(C(=O)O)n(Cc3cccc(OC)c3)c3c(NC(=O)C4CC4)cccc23)cc1 [Example 302] | 10 to 10000 | 210 °C (dec.)
6 | COc1cccc(Cn2c(C(=O)O)c(-c3ccc(C(=O)NC4CCCC4)cc3)c3ccccc32)c1 [Example 324] | 10 to 10000 | 230 °C
7 | COc1cccc(Cn2c(C(=O)O)c(-c3ccc(C(C)(C)C)cc3)c3cccc(NC(=O)C4CC4)c32)c1 [Example 292] | 10 to 10000 | 151 °C
8 | COc1cccc(Cn2c(C(=O)O)c(-c3ccc(C(=O)NC4CCCCC4)cc3)c3ccccc32)c1 [Example 325] | 10 to 10000 | 245 °C
9 | COc1cccc(Cn2c(C(=O)O)c(-c3ccc(C(C)(C)C)cc3)c3cc(NC(=O)NCC4CC4)ccc32)c1 [Example 270] | 10 to 10000 | 141 to 142 °C
10 | COc1cccc(Cn2c(C(=O)O)c(-c3cccc(C(=O)NC4CC4)c3)c3ccccc32)c1 [Example 328] | 10 to 10000 | 204 °C
11 | COc1cccc(Cn2c(C(=O)O)c(-c3ccc(C(C)(C)C)cc3)c3cc(N(C)C(=O)C4CC4)ccc32)c1 [Example 274] | 10 to 10000 | 219 to 222 °C
12 | COc1ccc(-c2c(C(=O)O)n(CS(=O)(=O)c3ccccc3)c3ccccc23)cc1 [Example 282] | 10 to 10000 | 166 to 168 °C
13 | CC(=O)Nc1cccc(-c2c(C(=O)O)n(Cc3cccc(OCC4CC4)c3)c3ccccc23)c1 [Example 298] | 10 to 10000 | 122 to 123 °C
14 | COc1cccc(Cn2c(C(=O)O)c(-c3ccc(C(C)(C)C)cc3)c3cccc(N(C)C(=O)N(C)C4CC4)c32)c1 [Example 293] | 10 to 10000 | 112 to 115 °C (dec.)
15 | CCOc1ccc(-c2c(C(=O)O)n(Cc3ccc(F)cc3)c3c(N(C)C(=O)C4CC4)cccc23)cc1 [Example 286] | 10 to 10000 | 128 °C
16 | COc1cccc(Cn2c(C(=O)O)c(-c3cccc(NC(=O)C4CCCC4)c3)c3ccccc32)c1 [Example 327] | 10 to 10000 | 133 °C (dec.)
17 | COc1cccc(Cn2c(C(=O)O)c3c4cc(ccc42)OCCCCCCOc2cccc-3c2)c1 [Example 300] | 10 to 10000 | 79 to 80 °C
18 | COc1cccc(Cn2c(C(=O)O)c(-c3cccc(N(C)C(=O)C4CC4)c3)c3ccccc32)c1 [Example 295] | 10 to 10000 | 200 °C
19 | COc1cccc(Cn2c(C(=O)O)c(-c3ccc(C(C)(C)C)cc3)c3cc(NC(=O)C4CCCC4)ccc32)c1 [Example 269] | 10 to 10000 | 154 to 156 °C
20 | COc1cccc(Cn2c(C(=O)O)c(-c3ccc(OCC4CC4)cc3)c3cc(OCc4ccccc4)ccc32)c1 [Example 229, 5-(Benzyloxy)-3-[4-(cyclopropylmethoxy)phenyl]-1-(3-methoxybenzyl)-1H-indole-2-carboxylic acid] | – | 185 to 187 °C
21 | COc1cccc(Cn2c(C(=O)O)c(-c3ccc(OCC4CCCCO4)cc3)c3ccccc32)c1 (stereo not shown) [Example 306] | 10 to 10000 | –
22 | COc1cccc(Cn2c(C(=O)O)c(-c3ccc(OCC(=O)c4ccc(N5CCCC5)cc4)cc3)c3ccccc32)c1 [Example 310] | 10 to 10000 | –

Results, then the molecule that gave them:

Row | IC50 [1] [nM] | melting point | Compound
23 | 0.1 to 9.99 | 171 to 173 °C | CCOc1ccc(-c2c(C(=O)O)n(Cc3ccc(F)cc3)c3ccc(COCC4CC4)cc23)cc1 [Example 347, 5-[(Cyclopropylmethoxy)methyl]-3-(4-ethoxyphenyl)-1-(4-fluorobenzyl)-1H-indole-2-carboxylic acid]
24 | 0.1 to 9.99 | 204 °C | CC(C)c1cccc(-c2c(C(=O)O)n(Cc3cccc(OCC4CC4)c3)c3ccccc23)c1 [Example 284]
25 | 0.1 to 9.99 | 120 °C | CC(C)(C)c1ccc(-c2c(C(=O)O)n(Cc3cccc(OCC4CC4)c3)c3ccccc23)cc1 [Example 288]
26 | 0.1 to 9.99 | 211 to 214 °C | O=C(O)c1c(-c2cc3ccccc3o2)c2ccccc2n1Cc1cccc(C(F)(F)F)c1 [Example 235]
27 | 0.1 to 9.99 | 218 °C (dec.) | COc1cccc(Cn2c(C(=O)O)c(-c3ncc(C(C)=O)s3)c3ccccc32)c1 [Example 343]
28 | 0.1 to 9.99 | 172 to 173 °C | O=C(O)c1c(-c2ccco2)c2ccccc2n1Cc1cccc(C(F)(F)F)c1 [Example 237]
29 | 0.1 to 9.99 | 159 °C | CC(C)(C)c1ccc(-c2c(C(=O)O)n(Cc3cccc(OC4CCCC4)c3)c3ccccc23)cc1 [Example 289]
30 | 0.1 to 9.99 | 212 to 214 °C | CC(=O)c1ccc(-c2c(C(=O)O)n(Cc3cccc(C(F)(F)F)c3)c3ccccc23)s1 [Example 236]
31 | 0.1 to 9.99 | 147 to 148 °C | COc1cccc(Cn2c(C(=O)O)c(-c3cccc(OCC4CC4)c3)c3ccccc32)c1 [Example 345]
32 | 0.1 to 9.99 | 165 to 167 °C | COc1cccc(Cn2c(C(=O)O)c(CC3CC3)c3ccccc32)c1 [Example 265]
33 | 0.1 to 9.99 | 204 to 205 °C | O=C(O)c1c(-c2ccc(OCC3CC3)cc2)c2ccccc2n1Cc1cccc(OC(F)(F)F)c1 [Example 346]
34 | 0.1 to 9.99 | 166 °C | COc1ccc(-c2c(C(=O)NS(=O)(=O)c3ccc(Cl)cc3)n(Cc3cccc(C(F)(F)F)c3)c3ccccc23)cc1 [Example 359]
35 | 0.1 to 9.99 | 168 °C | COc1ccc(-c2c(C(=O)O)n(Cc3cccc(OCC4CC4)c3)c3ccccc23)cc1 [Example 287]
36 | 0.1 to 9.99 | 194 to 196 °C | COc1cccc(Cn2c(C(=O)O)c(-c3ccc(C(C)(C)C)cc3)c3cc(NC(=O)C4CC4)ccc32)c1 [Example 268]
37 | 0.1 to 9.99 | 174 to 175 °C | O=C(O)c1c(CC2CC2)c2ccccc2n1Cc1cccc(C(F)(F)F)c1 [Example 264]
38 | 0.1 to 9.99 | 148 to 150 °C | O=C(O)c1c(C=C2CC2)c2ccccc2n1Cc1cccc(C(F)(F)F)c1 [Example 231, 3-(Cyclopropylidenemethyl)-1-[3-(trifluoromethyl)benzyl]-1H-indole-2-carboxylic acid]
39 | 0.1 to 9.99 | 190 to 192 °C | COc1cccc(Cn2c(C(=O)O)c(-c3ccc(-c4ccco4)cc3)c3ccccc32)c1 [Example 240]
40 | 0.1 to 9.99 | – | O=C(O)c1c(-c2nc3ccccc3s2)c2ccccc2n1Cc1cccc(OCC2CC2)c1 [Example 250]
41 | 0.1 to 9.99 | – | COc1ccc(-c2c(C(=O)NS(=O)(=O)c3ccc(OC)cc3)n(Cc3cccc(C(F)(F)F)c3)c3ccccc23)cc1 [Example 357]
